{"source": "paper PMC7344389", "about": "“Discovery of Anti-Amoebic Inhibitors from Screening the MMV Pandemic Response Box on Balamuthia mandrillaris, Naegleria fowleri, and Acanthamoeba castellanii” (Pathogens, 2020)", "assay_type_in_all_cases": "cell-based", "key": {"[1]": {"test_system": "Naegleria fowleri trophozoites", "assay": "CellTiter-Glo 2.0 trophocidal assay, N. fowleri", "settings": "for IC50: 72 h, CTG method, duplicate twofold serial dilutions from 10 µM, mean ± SD, read-out: N. fowleri Mean IC50 (µM) ± SD; for Selectivity Index (A549 IC50/N. fowleri IC50): SI = (IC50 A549)/(IC50 Amoeba); for potency against N. fowleri, in words: dose-response, CTG", "protocol": "Pathogenic Naegleria fowleri (ATCC 30215), a clinical isolate obtained from a child in Adelaide, Australia, that died of PAM in 1969 was previously purchased from the American Type Culture Collection (ATCC). Trophozoites were routinely grown axenically at 34 °C in Nelson’s complete medium (NCM) in non-vented 75 cm^2 tissue culture flasks (Olympus, El Cajon, CA, USA), until the cells were 80–90% confluent. For sub-culturing, cells were placed on ice to detach the cells from the culture flasks. The cells were collected by centrifugation at 4000 rpm at 4 °C. Complete NCM media is produced by the addition of 10% FBS and 125 μg of penicillin/streptomycin antibiotics.\nThe trophocidal activity of compounds was assessed using the CellTiter-Glo 2.0 luminescent viability assay (Promega, Madison, WI, USA), as previously described. Trophozoites were routinely cultured as described above and only logarithmic trophozoites were used. In brief, B. mandrillaris, N. fowleri, or A. castellanii trophozoites cultured in their corresponding media were seeded at 16,000, 3000, or 1440 cells/well into white 96-well plates (Costar 3370), respectively. Initially all compounds were assessed in a single-point drug screen at 10 and 1 μM, as previously described. […] Control wells were supplemented with 0.1% (10 μM screening plate) or 0.01% (1 μM screening plate) DMSO, as the negative controls, or 12.5 μM of chlorhexidine, as the positive control. Following the single-point assays at 10 and 1 µM, we prioritized compounds for progression to IC50 determinations. […] We used this process to reduce the number of potential false positives. Drugs were cherry-picked, dissolved in the media specific to each parasite, and assessed in twofold serial dilutions from the highest concentration of 10 μM. All assays were incubated at each of the parasites’ representative growth temperatures, described above, for 72 h. At the 72 h time point, 25 μL of CellTiter-Glo 2.0 reagent was added to all wells of the 96-well plates using the Biomek NX^P automated workstation. The plates were protected from light and contents were mixed using an orbital shaker at 300 rpm at room temperature for 2 min to induce cell lysis. After shaking, the plates were equilibrated at room temperature for 10 min to stabilize the luminescent signal. The adenosine triphosphate (ATP) luminescent signal (relative light units; RLUs) was measured at 490 nm with a SpectraMax I3X plate reader (Molecular Devices, Sunnyvale, CA, USA). Drug inhibitory concentration (IC50) curves were generated using total ATP RLUs, where controls were calculated as the average of replicates using the Levenberg–Marquardt algorithm, using DMSO as the normalization control, as defined in Collaborative Drug Discovery Inc. (CDD) Vault (Burlingame, CA, USA). Values reported are from a minimum of two biological replicates with standard deviations."}, "[2]": {"test_system": "Acanthamoeba castellanii trophozoites", "assay": "CellTiter-Glo 2.0 trophocidal assay, A. castellanii", "settings": "for IC50: 72 h, CTG method, duplicate twofold serial dilutions from 10 µM, mean ± SD; for Selectivity Index (A549 IC50/A. castellanii IC50): SI = (IC50 A549)/(IC50 Amoeba); for potency against A. castellanii, in words: dose-response, CTG", "protocol": "This isolate was also purchased from ATCC. Trophozoites were routinely grown axenically at 27 °C in Protease Peptone-Glucose Media (PG) in non-vented 75 cm^2 tissue culture flasks (Olympus, El Cajon, CA, USA), until the cells were 80–90% confluent. For sub-culturing, cells were mechanically harvested to detach the cells from the culture flasks. The cells were collected by centrifugation at 4000 rpm at 4 °C.\nThe trophocidal activity of compounds was assessed using the CellTiter-Glo 2.0 luminescent viability assay (Promega, Madison, WI, USA), as previously described. Trophozoites were routinely cultured as described above and only logarithmic trophozoites were used. […] Initially all compounds were assessed in a single-point drug screen at 10 and 1 μM, as previously described. […] We used this process to reduce the number of potential false positives. Drugs were cherry-picked, dissolved in the media specific to each parasite, and assessed in twofold serial dilutions from the highest concentration of 10 μM. All assays were incubated at each of the parasites’ representative growth temperatures, described above, for 72 h. At the 72 h time point, 25 μL of CellTiter-Glo 2.0 reagent was added to all wells of the 96-well plates using the Biomek NX^P automated workstation. The plates were protected from light and contents were mixed using an orbital shaker at 300 rpm at room temperature for 2 min to induce cell lysis. After shaking, the plates were equilibrated at room temperature for 10 min to stabilize the luminescent signal. The adenosine triphosphate (ATP) luminescent signal (relative light units; RLUs) was measured at 490 nm with a SpectraMax I3X plate reader (Molecular Devices, Sunnyvale, CA, USA). Drug inhibitory concentration (IC50) curves were generated using total ATP RLUs, where controls were calculated as the average of replicates using the Levenberg–Marquardt algorithm, using DMSO as the normalization control, as defined in Collaborative Drug Discovery Inc. (CDD) Vault (Burlingame, CA, USA). Values reported are from a minimum of two biological replicates with standard deviations."}, "[3]": {"test_system": "A549 human lung carcinoma cells", "assay": "MTS cytotoxicity counter-screen of reconfirmed hits", "settings": "Homo sapiens", "protocol": "Cytotoxicity of the reconfirmed hits was determined by using the CellTiter 96® AQueous One Solution Cell Proliferation Assay (Promega, Madison, WI) on A549 human lung carcinoma cells. A549 cells were seeded at a concentration of 1.6 × 10^4 cells/mL in 96-well tissue culture plates (Corning, NY, USA), in the presence of serially diluted active hits against B. mandrillaris, N. fowleri, or A. castellanii. Positive control wells contained cells and media; negative control wells contained 0.1% DMSO. Cells were grown in F12K medium supplemented with 10% FBS and 1% gentamycin (all supplied from Fisher Scientific, Atlanta, GA, USA). The inhibitor concentration started at 10 µM and was diluted in doubling dilutions to assess cytotoxicity in comparison to the respective free-living amoeba. Total volume of each well was 100 µL and plates were incubated at 37 °C, 5% CO2 for 72 h. Next, 4 h before the time-point, 20 µL of MTS (Promega, Madison, WI, USA) was added to each well. Inhibition of A549 growth was assessed at the 72 h time-point measuring the optical density (OD) values at 490 nm using a SpectraMax I3X plate reader (Molecular Devices, Sunnyvale, CA, USA). Curve fitting using non-linear regression was carried out using the average of replicates and the Levenberg–Marquardt algorithm, using DMSO as the normalization control, as defined in CDD Vault (Burlingame, CA, USA)."}, "[4]": {"settings": "A549, MTS assay, 72 h, doubling dilutions from 10 µM, read-out: A549 Mean IC50"}}, "note": "Where two headings read alike, the source gives them in different places."}
{"smiles": "C[C@@H](c1nc(-c2ccc(C#N)cc2)cs1)[C@](O)(Cn1cncn1)c1ccc(F)cc1F", "note": "[Ravuconazole]", "values": [{"measurement": "IC50", "setting": "[1]; Naegleria fowleri", "value": "0.05 ± 0.02", "unit": "µM"}, {"measurement": "Selectivity Index (A549 IC50/N. fowleri IC50)", "setting": "[1]; listed as ravuconazole", "value": "≥ 10"}, {"measurement": "potency against N. fowleri, in words", "setting": "[1]", "value": "nanomolar potency"}, {"measurement": "IC50", "setting": "[2]; Acanthamoeba castellanii", "value": "0.02 ± 0.01", "unit": "µM"}, {"measurement": "Selectivity Index (A549 IC50/A. castellanii IC50)", "setting": "[2]", "value": "≥625"}, {"measurement": "Selectivity Index (A549 IC50/A. castellanii IC50)", "setting": "[2]; listed as ravuconazole", "value": "≥ 10"}, {"measurement": "potency against A. castellanii, in words", "setting": "[2]", "value": "nanomolar potency"}, {"measurement": "IC50", "setting": "[3]; [4]", "value": "> 10", "unit": "µM"}]}
{"smiles": "Cc1[nH]c2ccccc2c1CCNCc1ccc(/C=C/C(=O)NO)cc1", "note": "[Panobinostat]", "values": [{"measurement": "IC50", "setting": "[1]; Naegleria fowleri", "value": "0.22 ± 0.06", "unit": "µM"}, {"measurement": "Selectivity Index (A549 IC50/N. fowleri IC50)", "setting": "[1]", "value": "<1.44"}, {"measurement": "potency against N. fowleri, in words", "setting": "[1]", "value": "nanomolar potency"}, {"measurement": "IC50", "setting": "[2]; Acanthamoeba castellanii", "value": "> 10", "unit": "µM"}, {"measurement": "IC50", "setting": "[3]; [4]", "value": "< 0.31", "unit": "µM"}]}
{"smiles": "CN(Cc1ccc(C(C)(C)C)cc1)Cc1cccc2ccccc12", "note": "[Butenafine]", "values": [{"measurement": "IC50", "setting": "[1]; listed as butenafine", "value": "≤ 10", "unit": "µM"}, {"measurement": "IC50", "setting": "[1]", "value": "1.05 ± 0.35", "unit": "µM"}, {"measurement": "Selectivity Index (A549 IC50/N. fowleri IC50)", "setting": "[1]", "value": "≥9.52"}, {"measurement": "IC50", "setting": "[2]", "value": "1.97 ± 1.76", "unit": "µM"}, {"measurement": "IC50", "setting": "[2]; listed as butenafine", "value": "≤ 10", "unit": "µM"}, {"measurement": "Selectivity Index (A549 IC50/A. castellanii IC50)", "setting": "[2]", "value": "≥5.08"}, {"measurement": "IC50", "setting": "[3]; [4]", "value": "> 10", "unit": "µM"}]}
{"smiles": "CN(C/C=C/C#CC(C)(C)C)Cc1cccc2ccccc12", "note": "[Terbinafine]", "values": [{"measurement": "IC50", "setting": "[1]; Naegleria fowleri", "value": "0.79 ± 0.7", "unit": "µM"}, {"measurement": "Selectivity Index (A549 IC50/N. fowleri IC50)", "setting": "[1]", "value": "≥12.7"}, {"measurement": "Selectivity Index (A549 IC50/N. fowleri IC50)", "setting": "[1]; listed as terbinafine", "value": "≥ 10"}, {"measurement": "potency against N. fowleri, in words", "setting": "[1]", "value": "nanomolar potency"}, {"measurement": "IC50", "setting": "[2]; Acanthamoeba castellanii", "value": "0.56 ± 0.28", "unit": "µM"}, {"measurement": "Selectivity Index (A549 IC50/A. castellanii IC50)", "setting": "[2]", "value": "≥18"}, {"measurement": "Selectivity Index (A549 IC50/A. castellanii IC50)", "setting": "[2]; listed as terbinafine", "value": "≥ 10"}, {"measurement": "potency against A. castellanii, in words", "setting": "[2]", "value": "nanomolar potency"}, {"measurement": "IC50", "setting": "[3]; A549, 72 h, read-out: A549 Mean IC50 (µM)", "value": "> 10", "unit": "µM"}]}
{"smiles": "CC(=O)Oc1ccccc1C(=O)Nc1ncc([N+](=O)[O-])s1", "note": "[Nitazoxanide]", "values": [{"measurement": "IC50", "setting": "[1]; Naegleria fowleri", "value": 3.6, "unit": "µM"}, {"measurement": "Selectivity Index (A549 IC50/N. fowleri IC50)", "setting": "[1]", "value": "≥2.78"}, {"measurement": "IC50", "setting": "[2]; Acanthamoeba castellanii", "value": "> 10", "unit": "µM"}, {"measurement": "IC50", "setting": "[3]; [4]", "value": "> 10", "unit": "µM"}]}
